Patent US9770026B2, “Substituted pyrimidine compound and uses thereof” (Shenyang Sinochem Agrochemicals R&D Co., Ltd., priority 2012, dated 2017)

Assays:
[1] = system: rice blast; experiment: microbe, parasite or virus in culture; type: cell-based; conditions: Pyricularia oryzae; for inhibition at 8.3 ppm: read-out: inhibition rate against rice blast, 8.3 ppm, in vitro; for inhibition at 25 ppm: read-out: inhibition rate against rice blast, 25 ppm, in vitro
[2] = system: cucumber gray mold; experiment: fungicidal activity in vitro (inhibition rate) against cucumber gray mold; type: cell-based; conditions: 25 ppm, in vitro; read-out: inhibition rate against cucumber gray mold
[3] = system: Diamond back moth; experiment: insecticidal activity against diamond back moth, airbrush spray; type: in vivo; conditions: for pest or weed control at 10 µg/mL: 10 mg/L; for pest or weed control at 100 µg/mL: 100 mg/L
Outline: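 Airbrush leaf-disc spray test: both faces of 2 cm cabbage discs received 0.5 ml of test solution at 0.7 kg/cm^2. Solutions were made in acetone:methanol (1:1) and brought to concentration with 0.1% Tween 80 in water. Ten second-instar larvae per disc, triplicates, were held at 25° C and 60˜70% R.H., with mortality recorded at 72 hrs.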

[4] = system: armyworm; experiment: bioactivity test against armyworm, airbrush spray; type: in vivo; conditions: for pest or weed control at 10 µg/mL: 10 mg/L
[5] = system: Green peach aphids (Myzus Persicae Sulzer); experiment: bioactivity test against green peach aphid, airbrush foliar spray; type: in vivo; conditions: for pest or weed control at 10 µg/mL: 10 mg/L; for pest or weed control at 100 µg/mL: 100 mg/L; for pest or weed control at 2.5 µg/mL: 2.5 mg/L; for pest or weed control at 5 µg/mL: 5 mg/L
Outline: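 Aphids (15-30 per cabbage leaf disc) on moist filter paper were airbrush-sprayed at 10 psi, 0.5 mL, with compound from acetone:methanol (1:1) diluted in water with 0.1% tween 80. Held at 25±1 C, 60±5% RH; survivors counted after 48 hrs to give death rates.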

[6] = system: corn rust; experiment: protectant activity in vivo against corn rust; conditions: Zea mays, 168 h; for pest or weed control at 6.25 µg/mL: read-out: control effect against corn rust (%), 6.25 mg/L; for pest or weed control at 6.25 µg/mL / pest or weed control at 25 µg/mL / pest or weed control at 100 µg/mL / pest or weed control at 400 µg/mL: protectant activity; for pest or weed control at 25 µg/mL: read-out: control effect against corn rust (%), 25 mg/L; for pest or weed control at 100 µg/mL: read-out: control effect against corn rust (%), 100 mg/L; for pest or weed control at 400 µg/mL: read-out: control effect against corn rust (%), 400 mg/L
[7] = system: wheat powdery mildew; experiment: protectant activity in vivo against wheat powdery mildew; conditions: for pest or weed control at 6.25 µg/mL: read-out: control effect against wheat powdery mildew (%), 6.25 mg/L; for pest or weed control at 25 µg/mL: read-out: control effect against wheat powdery mildew (%), 25 mg/L; for pest or weed control at 100 µg/mL: read-out: control effect against wheat powdery mildew (%), 100 mg/L; for pest or weed control at 400 µg/mL: read-out: control effect against wheat powdery mildew (%), 400 mg/L
[8] = system: carmine spider mite; experiment: bioactivity test against carmine spider mite, airbrush spray; type: in vivo; conditions: contrastive test; for pest or weed control at 600 µg/mL / pest or weed control at 10 µg/mL / pest or weed control at 100 µg/mL: Tetranychus cinnabarinus, 72 h, read-out: Insecticidal activity against carmine spider mite (% ); for pest or weed control at 10 µg/mL: 10 mg/L; for pest or weed control at 100 µg/mL: 100 mg/L
Outline: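 Broadbean seedlings infested with adult mites were sprayed with compound (acetone/methanol stock diluted in 0.1% Tween 80 water) by airbrush at 0.7 kg/cm^2, 0.5 ml. Three replicates were run. Mortality was scored after 72 hrs.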

[9] = system: cucumber downy mildew; experiment: protectant activity in vivo against cucumber downy mildew; conditions: for pest or weed control at 25 µg/mL: read-out: control effect against cucumber downy mildew (%), 25 mg/L; for pest or weed control at 50 µg/mL: read-out: control effect against cucumber downy mildew (%), 50 mg/L; for pest or weed control at 100 µg/mL: read-out: control effect against cucumber downy mildew (%), 100 mg/L; for pest or weed control at 400 µg/mL: read-out: control effect against cucumber downy mildew (%), 400 mg/L
[10] = 72 h, 600 mg/L, read-out: Insecticidal activity against armyworm (%)
[11] = Myzus persicae, foliar, 48 h, contrastive test, read-out: Insecticidal activity against peach aphid (%)
[12] = Myzus persicae, foliar, 48 h, 600 mg/L, contrastive test, read-out: Insecticidal activity against peach aphid (%)
[13] = Triticum aestivum, 168 h, protectant activity
[14] = Cucumis sativus, 168 h, protectant activity
[15] = 72 h, read-out: Insecticidal activity against armyworm (%)

Row | Compound | inhibition at 8.3 ppm [1] [%] | inhibition at 25 ppm [1] [%] | inhibition at 25 ppm [2] [%] | pest or weed control at 600 µg/mL ([3]; 72 h, 600 mg/L) [%] | pest or weed control at 600 µg/mL [4, 10] [%] | pest or weed control at 10 µg/mL [5, 11] [%] | pest or weed control at 100 µg/mL [5, 11] [%] | pest or weed control at 600 µg/mL [5, 12] [%] | pest or weed control at 6.25 µg/mL [6] [%] | pest or weed control at 25 µg/mL [6] [%] | pest or weed control at 100 µg/mL [6] [%] | pest or weed control at 400 µg/mL [6] [%] | pest or weed control at 6.25 µg/mL [7, 13] [%] | pest or weed control at 25 µg/mL [7, 13] [%] | pest or weed control at 100 µg/mL [7, 13] [%] | pest or weed control at 400 µg/mL [7, 13] [%] | pest or weed control at 10 µg/mL ([3]; 72 h) [%] | pest or weed control at 100 µg/mL ([3]; 72 h) [%] | pest or weed control at 2.5 µg/mL [5, 11] [%] | pest or weed control at 600 µg/mL ([8]; 600 mg/L) [%] | further results
1 | CCc1ncnc(NCc2ccc(Oc3ccc(C(F)(F)F)cc3Cl)cc2)c1Cl [CK48, reference compound] | 0 | < 50 | 0 | 40 | 50 | 0 | 87 | 100 | 0 | 0 | 20 | 60 | 0 | 0 | 0 | 30 | – | – | – | – | –
2 | CC(Cl)c1ncnc(NCCc2ccc(Oc3ncc(Cl)cc3Cl)cc2)c1Cl (stereo not shown) [CK45, reference compound] | – | 0 | < 50 | 86 | 0 | 55 | 98 | 100 | – | – | – | 80 | – | – | – | 0 | 0 | 12 | 26 | 0 | pest or weed control at 1.25 µg/mL ([5]; Myzus persicae, foliar, 48 h, 1.25 mg/L, contrastive test, read-out: Insecticidal activity against peach aphid (%)): 0%; pest or weed control at 5 µg/mL [5, 11]: 39%
3 | CC(Cl)c1ncnc(NCCc2ccc(Oc3ncc(C(F)(F)F)cc3Cl)cc2)c1Cl (stereo not shown) [CK21, reference compound] | – | 0 | < 50 | 80 | 0 | 35 | 98 | 100 | – | – | – | 85 | – | – | – | 0 | 10 | 25 | 0 | 0 | pest or weed control at 5 µg/mL [5, 11]: 19%
4 | FC(F)c1ncnc(NCCc2ccc(Oc3ccc(Cl)cc3Cl)nc2)c1Cl [III-622] | – | 80 to 99 | 80 to 99 | – | – | – | – | – | – | – | – | – | – | – | – | – | – | – | – | – | pest or weed control at 600 ppm ([3]; 72 h, 600 ppm, mortality after 72 hrs, read-out: control (test results against diamond back moth)): 100%; pest or weed control at 600 ppm ([5]; Myzus persicae, foliar, 48 h, 600 ppm, death rate after 48 hrs): 100%; pest or weed control at 6.25 ppm ([6]; read-out: protectant activity against corn rust in vivo, 6.25 ppm): 80 to 99%; pest or weed control at 25 ppm ([6]; read-out: protectant activity against corn rust in vivo, 25 ppm): 100%; pest or weed control at 100 ppm ([6]; read-out: protectant activity against corn rust in vivo, 100 ppm): 100%; pest or weed control at 400 ppm ([6]; read-out: protectant activity against corn rust in vivo, 400 ppm): 100%; pest or weed control at 400 ppm ([7]; Triticum aestivum, 168 h, read-out: protectant activity against wheat powdery mildew in vivo, 400 ppm): 100%; pest or weed control at 6.25 µg/mL ([9]; Cucumis sativus, 168 h, read-out: control effect against cucumber downy mildew (%), 6.25 mg/L, protectant activity): 98%; pest or weed control at 12.5 µg/mL ([9]; Cucumis sativus, 168 h, read-out: control effect against cucumber downy mildew (%), 12.5 mg/L, protectant activity): 100%; pest or weed control at 25 µg/mL [9, 14]: 100%; pest or weed control at 50 µg/mL [9, 14]: 100%; pest or weed control at 100 µg/mL [9, 14]: 100%; pest or weed control at 400 µg/mL [9, 14]: 100%; pest or weed control at 6.25 ppm ([9]; Cucumis sativus, 168 h, read-out: protectant activity against cucumber downy mildew in vivo, 6.25 ppm): 80 to 99%; pest or weed control at 12.5 ppm ([9]; Cucumis sativus, 168 h, read-out: protectant activity against cucumber downy mildew in vivo, 12.5 ppm): 100%; pest or weed control at 25 ppm ([9]; Cucumis sativus, 168 h, read-out: protectant activity against cucumber downy mildew in vivo, 25 ppm): 100%; pest or weed control at 50 ppm ([9]; Cucumis sativus, 168 h, read-out: protectant activity against cucumber downy mildew in vivo, 50 ppm): 100%; pest or weed control at 100 ppm ([9]; Cucumis sativus, 168 h, read-out: protectant activity against cucumber downy mildew in vivo, 100 ppm): 100%; pest or weed control at 400 ppm ([9]; Cucumis sativus, 168 h, read-out: protectant activity against cucumber downy mildew in vivo, 400 ppm): 100%
5 | CC(Cl)c1ncnc(NCCc2ccc(O)cc2)c1Cl (stereo not shown) [CK4, reference compound] | – | < 50 | 0 | 0 | 40 | 64 | 100 | 100 | – | – | 0 | 0 | – | – | 0 | 40 | – | – | 0 | 75 | pest or weed control at 5 µg/mL [5, 11]: 41%
6 | Cc1ncnc(NC(C)c2ccc(Oc3ccc(C(F)(F)F)cc3)cc2)c1Cl (stereo not shown) [CK46, reference compound] | 0 | < 50 | 0 | 100 | 71 | 0 | 5 | 100 | 0 | 0 | 0 | 40 | – | – | – | – | 0 | 10 | – | 100 | pest or weed control at 10 µg/mL [4, 15]: 0%; pest or weed control at 100 µg/mL ([4]; 72 h, 100 mg/L, read-out: Insecticidal activity against armyworm (%)): 0%; pest or weed control at 10 µg/mL [8]: 28%; pest or weed control at 100 µg/mL [8]: 63%
7 | Cc1ncnc(NCc2ccc(Oc3ccc(C(F)(F)F)cc3Cl)cc2)c1Cl [CK51, reference compound] | 0 | – | 0 | 57 | 43 | 0 | 50 | 100 | 0 | 0 | 20 | 80 | 0 | 40 | 80 | 100 | – | – | – | – | –
8 | CC(Cl)c1ncnc(NCCc2ccc(Oc3ccc(C(F)(F)F)cc3)cc2)c1Cl (stereo not shown) [CK20, reference compound] | – | < 50 | < 50 | 57 | – | – | – | – | 0 | 0 | 70 | 100 | 0 | 0 | 30 | 100 | – | – | – | 100 | pest or weed control at 10 µg/mL [4, 15]: 0%; pest or weed control at 100 µg/mL [8]: 72%; pest or weed control at 25 µg/mL [9, 14]: 0%; pest or weed control at 50 µg/mL [9, 14]: 0%; pest or weed control at 100 µg/mL [9, 14]: 10%; pest or weed control at 400 µg/mL [9, 14]: 100%
9 | Cc1ncnc(NCc2ccc(Oc3ncc(C(F)(F)F)cc3Cl)cc2)c1Cl [CK32, reference compound] | – | < 50 | 0 | – | – | – | – | – | – | – | – | – | – | – | – | – | – | – | – | – | Insecticidal activity against diamond back moth (%) ([3]; 600 mg/L): 0%; Insecticidal activity against armyworm (%) ([4]; 600 mg/L): 0%; Insecticidal activity against peach aphid (%) ([5]; 600 mg/L, contrastive test): 0%; Insecticidal activity against carmine spider mite (% ) ([8]; 600 mg/L): 91%; pest or weed control at 10 µg/mL [8]: 0%; pest or weed control at 100 µg/mL [8]: 22%; control effect against wheat powdery mildew (%) ([7]; 400 mg/L, protectant activity): 0%; control effect against cucumber downy mildew (%) ([9]; 400 mg/L, protectant activity): 60%
